Molecular target: T1, human PRMT1 (Homo sapiens, UniProt Q99873)
T1 construct: GST-tagged PRMT1; made in house; host or cells: High Five insect cells (baculovirus)
Assay: PRMT1 Biochemical Assay
Conditions: biochemical evaluation, peptide substrate
Description: S-adenosylmethionine (SAM), S-adenosylhomocysteine (SAH), bicine, Tween20, dimethylsulfoxide (DMSO), bovine skin gelatin (BSG), and Tris(2-carboxyethyl)phosphine hydrochloride solution (TCEP) were purchased from Sigma-Aldrich at the highest level of purity possible. ^3H-SAM was purchase from American Radiolabeled Chemicals with a specific activity of 80 Ci/mmol. 384-well streptavidin Flashplates were purchased from PerkinElmer.
Peptide representative of human histone H4 residues 36-50 was synthesized with an N-terminal linker-affinity tag motif and a C-terminal amide cap by 21st Century Biochemicals. The peptide was purified by high-performance liquid chromatography (HPLC) to greater than 95% purity and confirmed by liquid chromatography mass spectrometry (LC-MS). The sequence was Biot-Ahx-[…]-amide (SEQ ID NO.: 1). […]
The assays were all performed in a buffer consisting of 20 mM Bicine (pH=7.6), 1 mM TCEP, 0.005% BSG, and 0.002% Tween 20, prepared on the day of use. […] The plates were then read in a PerkinElmer TopCount plate reader to measure the quantity of ^3H-labeled peptide bound to the Flashplate surface, measured as disintegrations per minute (dpm) or alternatively, referred to as counts per minute (cpm). […]

T1 sequence (Q99873 with tags, fused parts or gaps): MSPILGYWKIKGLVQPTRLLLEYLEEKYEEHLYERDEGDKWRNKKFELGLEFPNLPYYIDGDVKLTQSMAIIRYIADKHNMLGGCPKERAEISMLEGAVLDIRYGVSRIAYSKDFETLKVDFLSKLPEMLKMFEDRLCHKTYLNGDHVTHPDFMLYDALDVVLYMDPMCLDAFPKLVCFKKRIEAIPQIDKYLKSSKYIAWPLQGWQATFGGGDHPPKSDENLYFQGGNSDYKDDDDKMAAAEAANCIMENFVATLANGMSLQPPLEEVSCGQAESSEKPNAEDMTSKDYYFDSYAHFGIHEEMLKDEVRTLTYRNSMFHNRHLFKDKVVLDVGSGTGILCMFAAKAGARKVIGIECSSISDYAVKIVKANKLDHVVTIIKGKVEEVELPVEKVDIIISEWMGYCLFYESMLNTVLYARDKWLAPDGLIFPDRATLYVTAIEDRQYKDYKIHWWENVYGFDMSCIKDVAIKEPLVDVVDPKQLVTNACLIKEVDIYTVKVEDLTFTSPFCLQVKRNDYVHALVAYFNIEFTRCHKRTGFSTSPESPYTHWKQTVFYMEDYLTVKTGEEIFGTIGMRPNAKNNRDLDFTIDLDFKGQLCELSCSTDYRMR

**Q.** Which IC50 does the source give for `CN(CCN)Cc1n[nH]c2cccc(OCc3ccccc3)c12` [Compound 1] here?
**A.** ≤ 0.1 µM

Source: patent US9943504B2, “Arginine methyltransferase inhibitors and uses thereof” (Epizyme, Inc., priority 2013, dated 2018)
